Data: ChEMBL document CHEMBL4007388, “Synthesis and antiproliferative activity of monocationic arylthiophene derivatives” (Eur J Med Chem, 2017)

Experiments:
[1] = system: UO-31; assay: Growth inhibition of human UO31 cells incubated for 48 hrs by sulforhodamine B assay; type: functional; details: UO-31, 48 h
[2] = organism: Homo sapiens; assay: Inhibition of PTK in human MCF7 cells at 1 uM preincubated for 2 hrs followed by poly-Glu-Tyr substrate addition by ELISA relative to control; type: cell-based
[3] = system: SN12C; assay: Growth inhibition of human SN12C cells incubated for 48 hrs by sulforhodamine B assay; type: functional
[4] = system: SNB-19; assay: Growth inhibition of human SNB19 cells incubated for 48 hrs by sulforhodamine B assay; type: functional; details: SNB-19, 48 h
[5] = system: KM12; assay: Growth inhibition of human KM12 cells incubated for 48 hrs by sulforhodamine B assay; type: functional; details: KM12, 48 h
[6] = system: OVCAR-5; assay: Growth inhibition of human OVCAR5 cells incubated for 48 hrs by sulforhodamine B assay; type: functional; details: OVCAR-5, 48 h
[7] = system: M14; assay: Growth inhibition of human M14 cells incubated for 48 hrs by sulforhodamine B assay; type: functional; details: M14, 48 h
[8] = system: RXF 393; assay: Growth inhibition of human RXF393 cells incubated for 48 hrs by sulforhodamine B assay; type: functional; details: RXF 393, 48 h
[9] = system: HCC 2998; assay: Growth inhibition of human HCC2998 cells incubated for 48 hrs by sulforhodamine B assay; type: functional; details: HCC 2998, 48 h
[10] = system: SNB-75; assay: Growth inhibition of human SNB75 cells incubated for 48 hrs by sulforhodamine B assay; type: functional; details: SNB-75, 48 h
[11] = system: SF-268; assay: Growth inhibition of human SF268 cells incubated for 48 hrs by sulforhodamine B assay; type: functional; details: SF-268, 48 h
[12] = system: SK-MEL-28; assay: Growth inhibition of human SK-MEL-28 cells incubated for 48 hrs by sulforhodamine B assay; type: functional; details: SK-MEL-28, 48 h
[13] = system: OVCAR-3; assay: Growth inhibition of human OVCAR3 cells incubated for 48 hrs by sulforhodamine B assay; type: functional; details: OVCAR-3, 48 h
[14] = system: SK-OV-3; assay: Growth inhibition of human SKOV3 cells incubated for 48 hrs by sulforhodamine B assay; type: functional; details: SK-OV-3, 48 h
[15] = system: RPMI-8226; assay: Growth inhibition of human RPMI8226 cells incubated for 48 hrs by sulforhodamine B assay; type: functional; details: RPMI-8226, 48 h
[16] = system: BT-549; assay: Growth inhibition of human BT549 cells incubated for 48 hrs by sulforhodamine B assay; type: functional; details: BT-549, 48 h
[17] = system: T47D; assay: Growth inhibition of human T47D cells incubated for 48 hrs by sulforhodamine B assay; type: functional
[18] = system: COLO 205; assay: Growth inhibition of human COLO205 cells incubated for 48 hrs by sulforhodamine B assay; type: functional; details: COLO 205, 48 h
[19] = system: CCRF-CEM; assay: Growth inhibition of human CCRF-CEM cells incubated for 48 hrs by sulforhodamine B assay; type: functional
[20] = system: SW-620; assay: Growth inhibition of human SW620 cells incubated for 48 hrs by sulforhodamine B assay; type: functional; details: SW-620, 48 h
[21] = system: MDA-MB-468; assay: Growth inhibition of human MDA-MB-468 cells incubated for 48 hrs by sulforhodamine B assay; type: functional; details: MDA-MB-468, 48 h
[22] = system: NCI-H322M; assay: Growth inhibition of human NCI-H322M cells incubated for 48 hrs by sulforhodamine B assay; type: functional
[23] = system: SK-MEL-2; assay: Growth inhibition of human SK-MEL-2 cells incubated for 48 hrs by sulforhodamine B assay; type: functional; details: SK-MEL-2, 48 h
[24] = system: NCI/ADR-RES; assay: Growth inhibition of human NCI/ADR-RES cells incubated for 48 hrs by sulforhodamine B assay; type: functional
[25] = system: OVCAR-8; assay: Growth inhibition of human OVCAR8 cells incubated for 48 hrs by sulforhodamine B assay; type: functional; details: OVCAR-8, 48 h
[26] = system: Malme-3M; assay: Growth inhibition of human MALME-3M cells incubated for 48 hrs by sulforhodamine B assay; type: functional
[27] = system: UACC-257; assay: Growth inhibition of human UACC257 cells incubated for 48 hrs by sulforhodamine B assay; type: functional; details: UACC-257, 48 h
[28] = system: ACHN; assay: Growth inhibition of human ACHN cells incubated for 48 hrs by sulforhodamine B assay; type: functional
[29] = system: MDA-MB-435; assay: Growth inhibition of human MDA-MB-435 cells incubated for 48 hrs by sulforhodamine B assay; type: functional; details: MDA-MB-435, 48 h
[30] = system: U-251; assay: Growth inhibition of human U251 cells incubated for 48 hrs by sulforhodamine B assay; type: functional; details: U-251, 48 h
[31] = system: HCT-15; assay: Growth inhibition of human HCT15 cells incubated for 48 hrs by sulforhodamine B assay; type: functional; details: HCT-15, 48 h
[32] = system: HCT-116; assay: Growth inhibition of human HCT116 cells incubated for 48 hrs by sulforhodamine B assay; type: functional; details: HCT-116, 48 h
[33] = Antioxidant activity assessed as superoxide dismutase-like activity by measuring inhibition of superoxide radical anion production at 2 uM by NBT reduction assay relative to control; type: functional
[34] = system: SK-MEL-5; assay: Growth inhibition of human SK-MEL-5 cells incubated for 48 hrs by sulforhodamine B assay; type: functional; details: SK-MEL-5, 48 h
[35] = system: UACC-62; assay: Growth inhibition of human UACC62 cells incubated for 48 hrs by sulforhodamine B assay; type: functional; details: UACC-62, 48 h
[36] = system: HOP-92; assay: Growth inhibition of human HOP92 cells incubated for 48 hrs by sulforhodamine B assay; type: functional; details: HOP-92, 48 h
[37] = system: NCI-H23; assay: Growth inhibition of human NCI-H23 cells incubated for 48 hrs by sulforhodamine B assay; type: functional; details: NCI-H23, 48 h
[38] = system: A549; assay: Growth inhibition of human A549/ATCC cells incubated for 48 hrs by sulforhodamine B assay; type: functional; details: A549, 48 h
[39] = system: TK-10; assay: Growth inhibition of human TK10 cells incubated for 48 hrs by sulforhodamine B assay; type: functional; details: TK-10, 48 h
[40] = system: OVCAR-4; assay: Growth inhibition of human OVCAR4 cells incubated for 48 hrs by sulforhodamine B assay; type: functional; details: OVCAR-4, 48 h
[41] = system: MDA-MB-231; assay: Growth inhibition of human MDA-MB-231 cells incubated for 48 hrs by sulforhodamine B assay; type: functional; details: MDA-MB-231, 48 h
[42] = system: PC-3; assay: Growth inhibition of human PC3 cells incubated for 48 hrs by sulforhodamine B assay; type: functional; details: PC-3, 48 h
[43] = system: WISH; assay: Cytotoxicity against human WISH cells assessed as reduction in cell viability after 24 hrs by MTT assay; type: cell-based
[44] = system: NCI-H460; assay: Growth inhibition of human NCI-H460 cells incubated for 48 hrs by sulforhodamine B assay; type: functional; details: NCI-H460, 48 h
[45] = system: LOX IMVI; assay: Growth inhibition of human LOXIMVI cells incubated for 48 hrs by sulforhodamine B assay; type: functional
[46] = system: HT-29; assay: Growth inhibition of human HT-29 cells incubated for 48 hrs by sulforhodamine B assay; type: functional; details: HT-29, 48 h
[47] = system: 786-0; assay: Growth inhibition of human 786-O cells incubated for 48 hrs by sulforhodamine B assay; type: functional; details: 786-0, 48 h
[48] = system: Hs-578T; assay: Growth inhibition of human Hs 578T cells incubated for 48 hrs by sulforhodamine B assay; type: functional
[49] = system: CAKI-1; assay: Growth inhibition of human Caki1 cells incubated for 48 hrs by sulforhodamine B assay; type: functional; details: CAKI-1, 48 h
[50] = system: SF-295; assay: Growth inhibition of human SF295 cells incubated for 48 hrs by sulforhodamine B assay; type: functional; details: SF-295, 48 h
[51] = system: WI-38; assay: Cytotoxicity against human WI38 cells assessed as reduction in cell viability after 24 hrs by MTT assay; type: cell-based; details: WI-38, 24 h
[52] = system: SF-539; assay: Growth inhibition of human SF539 cells incubated for 48 hrs by sulforhodamine B assay; type: functional; details: SF-539, 48 h
[53] = system: Escherichia coli; assay: Induction of Escherichia coli genomic DNA cleavage after 1 hr by agarose gel electrophoresis method
[54] = Growth inhibition of human NCI60 cells at 10 uM after 48 hrs by SRB assay relative to control; values are per cent of control; details: NCI60, 48 h
[55] = system: A498; assay: Growth inhibition of human A498 cells incubated for 48 hrs by sulforhodamine B assay; type: functional; details: A498, 48 h
[56] = system: DU-145; assay: Growth inhibition of human DU145 cells incubated for 48 hrs by sulforhodamine B assay; type: functional; details: DU-145, 48 h
[57] = system: MCF7; assay: Growth inhibition of human MCF7 cells incubated for 48 hrs by sulforhodamine B assay; type: functional; details: MCF7, 48 h
[58] = system: NCI-H522; assay: Growth inhibition of human NCI-H522 cells incubated for 48 hrs by sulforhodamine B assay; type: functional; details: NCI-H522, 48 h
[59] = system: NCI-H226; assay: Growth inhibition of human NCI-H226 cells incubated for 48 hrs by sulforhodamine B assay; type: functional; details: NCI-H226, 48 h

Compound `COc1ccc(-c2ccc(-c3ccc(C(=N)N)cc3)s2)cc1` has a GI50 [1] of 1670 nM, an inhibition [2] of 19 to 36% and a GI50 [3] of 189 nM. It also gave a GI50 [4] of 811 nM, a GI50 [5] of 339 nM and a GI50 [6] of 180 nM. For the same compound, the GI50 [7] was 1410 nM, the GI50 [8] was 1000 nM and the GI50 [9] was 1330 nM. It also gave a GI50 [10] of 1710 nM, a GI50 [11] of 1740 nM and a GI50 [12] of 1550 nM. For the same compound, the GI50 [13] was 1730 nM, the GI50 [14] was 1960 nM and the GI50 [15] was 282 nM. It also gave a GI50 [16] of 1650 nM, a GI50 [17] of 300 nM and a GI50 [18] of 224 nM. For the same compound, the GI50 [19] was 231 nM, the GI50 [20] was 211 nM and the GI50 [21] was 192 nM. It also gave a GI50 [22] of 1240 nM, a GI50 [23] of 2300 nM and a GI50 [24] of 1490 nM. It also gave a GI50 [25] of 321 nM, a GI50 [26] of 2170 nM and a GI50 [27] of 2070 nM. For the same compound, the GI50 [28] was 359 nM, the GI50 [29] was 924 nM and the GI50 [30] was 232 nM. The GI50 [31] was 183 nM, the GI50 [32] was 186 nM and the inhibition [33] was 59.2%. It also gave a GI50 [34] of 1390 nM, a GI50 [35] of 1410 nM and a GI50 [36] of 750 nM. For the same compound, the GI50 [37] was 665 nM, the GI50 [38] was 226 nM and the GI50 [39] was 1970 nM. For the same compound, the GI50 [40] was 1580 nM, the GI50 [41] was 267 nM and the GI50 [42] was 773 nM. For the same compound, the IC50 [43] was 180000 nM, the GI50 [44] was 204 nM and the GI50 [45] was 198 nM. The GI50 [46] was 196 nM, the GI50 [47] was 184 nM and the GI50 [48] was 2140 nM. The GI50 [49] was 1500 nM, the GI50 [50] was 1270 nM and the IC50 [51] was 192000 nM. For the same compound, the GI50 [52] was 160 nM, the Activity [53] was “Dose-dependent effect” and the growth percent at 10 µM [54] was -70.7%. The GI50 [55] was 1740 nM, the GI50 [56] was 201 nM and the GI50 [57] was 175 nM. The GI50 [58] was 251 nM and the GI50 [59] was 2140 nM.
